This note sets out measurements from ChEMBL document CHEMBL5143510, “Structure modification and biological evaluation of indole-chalcone derivatives as anti-tumor agents through dual targeting tubulin and TrxR” (Eur J Med Chem, 2022).

The IC50 is the concentration that inhibits the measured activity by half.

Experiment [1] can be described thus: Antiproliferative activity against vincristine resistant human HCT-8/VCR cells assessed as reduction in cell viability incubated for 48 hrs by MTT assay. The experiment is classed as functional, cell-based. Background: Tetrazolium dyes change colour on reduction, which living cells bring about.
Experiment [2] can be described thus: Resistance index, ratio of IC50 for antiproliferative activity against vincristine resistant human HCT-8/VCR cells to IC50 for antiproliferative activity against human HCT-8 cells. The experiment is classed as functional.
A further experiment has as its system HCT-8. Kind of experiment: Antiproliferative activity against human HCT-8 cells assessed as reduction in cell viability incubated for 48 hrs by MTT assay. To be noted: HCT-8, 48 h. The experiment is classed as functional, cell-based.
Experiment [3] has as its system MHCC97H. Kind of experiment: Antiproliferative activity against human MHCC97H cells assessed as reduction in cell viability incubated for 48 hrs by MTT assay. The experiment is classed as functional, cell-based.
The next experiment has as its system HeLa. The experiment in a line: Antiproliferative activity against human HeLa cells assessed as reduction in cell viability incubated for 48 hrs by MTT assay. The experiment is classed as functional, cell-based.
In another experiment the test system is MCF7. Kind of experiment: Antiproliferative activity against human MCF7 cells assessed as reduction in cell viability incubated for 48 hrs by MTT assay. The experiment is classed as functional, cell-based. To be noted: MCF7, 48 h.
The subject of the next experiment is A549. Kind of experiment: Antiproliferative activity against human A549 cells assessed as reduction in cell viability incubated for 48 hrs by MTT assay. To be noted: A549, 48 h. The experiment is classed as functional, cell-based.
The subject of the next experiment is A2780. Kind of experiment: Antiproliferative activity against human A2780 cells assessed as reduction in cell viability incubated for 48 hrs by MTT assay. The experiment is classed as functional, cell-based. To be noted: A2780, 48 h.
A short description of experiment [4]: Inhibition of TrxR (unknown origin) using DTNB as substrate incubated for 5 mins in presence of NADPH followed by substrate addition by microplate reader analysis. Also on record: species or system Homo sapiens.
Experiment [5] is described as follows: Inhibition of TrxR in human MHCC97H cells using DTNB as substrate preincubated for 24 hrs in presence of NADPH followed by substrate addition by microplate reader analysis. The experiment is classed as cell-based.
A short description of experiment [6]: Resistance index, ratio of IC50 for antiproliferative activity against paclitaxel resistant human A2780/PTX cells to IC50 for antiproliferative activity against human A2780 cells. The experiment is classed as functional.
Experiment [7] is described as follows: Antiproliferative activity against paclitaxel resistant human A2780/PTX cells assessed as reduction in cell viability incubated for 48 hrs by MTT assay. The experiment is classed as functional, cell-based.
The test system of experiment [8] is MHCC97H. The experiment in a line: Antitumor activity against human MHCC97H cells xenografted in BALB/c mouse assessed as tumor growth inhibition at 30 mg/kg, ip administered every other day for 30 days. The experiment is classed as functional. Particulars: 720 h, time 30 day, read-out: TGI. A general note: Xenograft models place foreign cells or tissue in a host animal.

Experiment [9] has as its system MHCC97H. The experiment in a line: Antitumor activity against human MHCC97H cells xenografted in BALB/c mouse assessed as tumor weight at 30 mg/kg, ip administered every other day for 30 days. To be noted: time 30 day. The experiment is classed as functional.
Experiment [10] has as its system MHCC97H. Kind of experiment: Antitumor activity against human MHCC97H cells xenografted in BALB/c mouse assessed as tumor volume at 30 mg/kg, ip administered every other day for 30 days. Particulars: time 30 day. The experiment is classed as functional.
The next experiment concerns NCI/ADR-RES. Kind of experiment: Antiproliferative activity against adriamycin resistant human MCF7/ADR cells assessed as reduction in cell viability incubated for 48 hrs by MTT assay. The experiment is classed as functional, cell-based.

Structures can show the parent of a compound that is named as a salt.

As for `CC[C@]1(O)C[C@H]2CN(CCc3c([nH]c4ccccc34)[C@@](C(=O)OC)(c3cc4c(cc3OC)N(C=O)[C@H]3[C@@](O)(C(=O)OC)[C@H](OC(C)=O)[C@]5(CC)C=CCN6CC[C@]43[C@@H]65)C2)C1` [VINCRISTINE], the IC50 in experiment [1] turned out to be 10200 nM; in the experiment with HCT-8, 217 nM. The “Ratio IC50” value in [2] amounted to 47.

As for `COc1ccc2c(/C=C/C(=O)c3cc(OC)c(OC)c([Se]C)c3)c[nH]c2c1`, the half-inhibitory concentration (IC50) with MHCC97H [3] is 58 nM; in the experiment with HCT-8 it was 78 nM; in the experiment with HeLa, 104 nM; with MCF7 it was 83 nM; with A549, 67 nM; with A2780 it was 65 nM.

With `COc1ccc2c(/C=C(\C)C(=O)c3cc(OC)c(OC)c([Se]C)c3)cn(C)c2c1`, the half-maximal inhibitory concentration (IC50) amounted to 15 nM in the experiment on MHCC97H [3]; 25 nM with HCT-8; 32 nM in the experiment with HeLa; 44 nM with MCF7; 15 nM in the experiment on A549; 26 nM with A2780.

As for `COc1ccc2c(/C=C/C(=O)c3cc(N)c(OC)c(OC)c3)cn(C)c2c1`, the half-inhibitory concentration (IC50) in the experiment on MHCC97H [3] worked out at 198 nM; with HCT-8, 455 nM; in the experiment with HeLa, 356 nM; in the experiment with MCF7, 505 nM; in the experiment with A549, 106 nM; with A2780, 156 nM.

Take `COc1cc(C(=O)/C=C/c2cn(C)c3ccccc23)cc([N+](=O)[O-])c1OC`: the half-inhibitory concentration (IC50) in the experiment with MHCC97H [3] is 850 nM; in the experiment with HCT-8, 1660 nM; in the experiment on HeLa, 1960 nM; with MCF7, 1770 nM; in the experiment on A549, 1060 nM; in the experiment on A2780, 1890 nM.

As for `COc1cc(C(=O)/C=C/c2cn(C)c3ccccc23)cc(SC)c1OC`, the IC50 was 150 nM in the experiment on MHCC97H [3]; 210 nM with HCT-8; 105 nM in the experiment on HeLa; 102 nM in the experiment on MCF7; 188 nM with A549; 193 nM in the experiment on A2780.

Take `COc1ccc2c(/C=C/C(=O)c3cc(OC)c(OC)c(SC)c3)cn(C)c2c1`: the IC50 with MHCC97H [3] came to 122 nM; in the experiment with HCT-8, 157 nM; with HeLa, 167 nM; with MCF7, 166 nM; in the experiment with A549 it was 156 nM; with A2780 it was 145 nM.

As for `COc1ccc2c(/C=C/C(=O)c3cc(OC)c(OC)c([N+](=O)[O-])c3)cn(C)c2c1`, the 50% inhibitory concentration (IC50) was found to be 562 nM in the experiment with MHCC97H [3]; 753 nM with HCT-8; 951 nM in the experiment with HeLa; 1520 nM with MCF7; 1020 nM in the experiment on A549; 952 nM with A2780.

As for `COc1cc(C(=O)/C=C/c2cn(C)c3ccccc23)cc(N)c1OC`, the IC50 with MHCC97H [3] worked out at 289 nM; in the experiment on HCT-8, 605 nM; in the experiment on HeLa, 668 nM; with MCF7 it was 631 nM; in the experiment with A549, 498 nM; in the experiment on A2780 it was 441 nM.

For the molecule `COc1ccc2c(/C=C/C(=O)c3cc(N)c(OC)c(OC)c3)c[nH]c2c1`, the IC50 with MHCC97H [3] is 186 nM; in the experiment on HCT-8, 368 nM; in the experiment with HeLa, 155 nM; in the experiment on MCF7, 249 nM; in the experiment with A549 it was 193 nM; in the experiment on A2780, 204 nM.

Take `COc1cc(/C=C/C(=O)CC(=O)/C=C/c2ccc(O)c(OC)c2)ccc1O` [CURCUMIN]: the IC50 in [4] stood at 29000 nM; in [5], 28800 nM.

Regarding `CC(=O)O[C@H]1C(=O)[C@@]2(C)[C@H]([C@H](OC(=O)c3ccccc3)[C@]3(O)C[C@H](OC(=O)[C@H](O)[C@@H](NC(=O)c4ccccc4)c4ccccc4)C(C)=C1C3(C)C)[C@]1(OC(C)=O)CO[C@@H]1C[C@@H]2O` [PACLITAXEL], the “Ratio IC50” value in experiment [6] was 16.4. Also, the half-inhibitory concentration (IC50) in experiment [7] worked out at 344 nM; in the experiment with A2780, 21 nM.

Consider `COc1cc(C(=O)/C=C/c2c[nH]c3ccccc23)cc([N+](=O)[O-])c1OC`, for which the IC50 amounted to 830 nM with MHCC97H [3]; 1390 nM in the experiment on HCT-8; 1350 nM in the experiment with HeLa; 1290 nM in the experiment with MCF7; 1510 nM in the experiment with A549; 1280 nM in the experiment on A2780.

On to `COc1ccc2c(/C=C/C(=O)c3cc(OC)c(OC)c(SC)c3)c[nH]c2c1`, for which the IC50 was found to be 112 nM with MHCC97H [3]; 138 nM with HCT-8; 131 nM in the experiment on HeLa; 101 nM in the experiment with MCF7; 115 nM in the experiment on A549; 139 nM with A2780.

With `COc1ccc(/C=C\c2cc(OC)c(OC)c(OC)c2)cc1O` [COMBRETASTATIN A4], the 50% inhibitory concentration (IC50) with MHCC97H [3] worked out at 8 nM; in the experiment on HCT-8, 23 nM; in the experiment with HeLa, 16 nM; in the experiment on MCF7 it was 29 nM.

`COc1ccc(/C=C\c2cc(OC)c(OC)c(OC)c2)cc1OP(=O)(O)O` [FOSBRETABULIN]: in the experiment with MHCC97H [8], the inhibition in vivo at 30 mg/kg was determined as 39.2%. The Activity in the experiment on MHCC97H [9] was 0.888 g; in the experiment with MHCC97H [10], 1031.1 mm3.

Consider `COc1cc(C(=O)/C(C)=C/c2cn(C)c3ccccc23)cc([Se]C)c1OC`, for which the IC50 with MHCC97H [3] was found to be 26 nM; with HCT-8, 48 nM; with HeLa, 63 nM; with MCF7, 77 nM; with A549 it was 18 nM; with A2780, 35 nM.

As to `COc1cc(C(=O)/C(C)=C/c2c[nH]c3ccccc23)cc([Se]C)c1OC`, the IC50 was found to be 18 nM with MHCC97H [3]; 32 nM with HCT-8; 34 nM in the experiment with HeLa; 59 nM with MCF7; 12 nM in the experiment with A549; 25 nM with A2780.

Turning to `COc1cc(C(=O)/C=C/c2c[nH]c3ccccc23)cc(N)c1OC`, the IC50 with MHCC97H [3] was found to be 263 nM; in the experiment with HCT-8, 577 nM; in the experiment on HeLa, 529 nM; in the experiment with MCF7, 595 nM; in the experiment with A549 it was 342 nM; with A2780, 351 nM.

On to `COc1cc(C(=O)/C=C/c2c[nH]c3ccccc23)cc(SC)c1OC`, for which the 50% inhibitory concentration (IC50) in the experiment on MHCC97H [3] worked out at 131 nM; in the experiment with HCT-8 it was 167 nM; with HeLa, 159 nM; in the experiment with MCF7, 186 nM; in the experiment on A549, 152 nM; with A2780, 169 nM.

Turning to `COc1ccc2c(/C=C/C(=O)c3cc(OC)c(OC)c([N+](=O)[O-])c3)c[nH]c2c1`, the IC50 was determined as 289 nM in the experiment with MHCC97H [3]; 982 nM in the experiment with HCT-8; 850 nM in the experiment on HeLa; 662 nM in the experiment on MCF7; 331 nM in the experiment with A549; 742 nM in the experiment with A2780.

For `O=c1c2ccccc2[se]n1CCn1[se]c2ccccc2c1=O`, the inhibition in vivo at 30 mg/kg in the experiment on MHCC97H [8] worked out at 51.7%. Moreover, the Activity with MHCC97H [9] is given as 1.119 g; in the experiment with MHCC97H [10], 832.6 mm3.

For the molecule `COc1cccc2c1C(=O)c1c(O)c3c(c(O)c1C2=O)C[C@@](O)(C(=O)CO)C[C@@H]3O[C@H]1C[C@H](N)[C@H](O)[C@H](C)O1` [DOXORUBICIN HYDROCHLORIDE], the half-maximal inhibitory concentration (IC50) in the experiment with NCI/ADR-RES amounted to 232000 nM.
